# Literature values, collected in patent publication US11103587B2, “Multiple oligonucleotide moieties on peptide carrier” (Genzyme Corporation, priority 2014, dated 2021).
# Experiments:
# [1] = tested on: exon 23 of the mRNA encoding for dystrophin; conditions: mdx mouse, cited from earlier work
# [2] = mice; cited from earlier work
sequence,measurement,setting,value
"GGCCAAACCTCGGCTTACCTGAAAT (PMO backbone, chemistry not fully specified) [PMO23, PMO designed to skip exon 23 of the mRNA encoding for dystrophin]",skipping of exon 23 in cardiac muscle,[1]; cardiac muscle,does not effect exon 23 skipping in cardiac muscle
same,skipping of exon 23 in skeletal muscle,[1]; skeletal muscle,< 15%
same,amount administered without any noticeable toxic effects,[2],≤ 250 mg/kg
